According to patent US20250025429A1, “LIPID NANOPARTICLES FOR OLIGONUCLEOTIDE DELIVERY” (ZIPHIUS NV, priority 2021, published 2025):

How the values were obtained:
[1] = LNP characterisation by Zeta Sizer (particle size, polydispersity, charge); assay type: physicochemical; details: LNP with saRNA; lipid:DOPE:Cholesterol:DMG-PEG 35:20:43.5:1.5; N/P approximately 40/1
Procedure: Cationic lipids, DOPE, Cholesterol and DMG-PEG lipid were solubilized in ethanol or DMSO at a molar ratio of 35:20:43.5:1.5 and a concentration of 100:25:20:25 μg/μL for C12-200 or 170:25:20:25 μg/μL for the comparator lipids. Lipid nanoparticles (LNP) were prepared by targeting an N/P ratio of approximately 40/1 with saRNA. Briefly, the saRNA was diluted to 0.5 mg/mL in 5 mM citrate buffer, pH 4.5. Microfluidic mixer (Ignite from Precision Nanosystems, California, USA) was used to mix the lipid solution with the saRNA aqueous solution at a ratio of about 1:3 (vol/vol) with total flow rates above 10 ml/min. The ethanol was then removed, and the external buffer replaced with 10 mM TRIS-HCL, pH 7.4, by dialysis. Finally, the lipid nanoparticles were filtered through a 0.2 μm pore sterile filter. Lipid nanoparticle particle size was 50-150 nm diameter and polydispersity index (PI) of 0.1-0.4 as determined by Zeta Sizer (Malvern Panalytical, UK). The charge of the formulation was also measured by Zeta Sizer and ranged between 20 to −20 mV.

[2] = Body weight of mice in the in vivo study (tolerability); details: female SWISS mice, 1 μg LNP-formulated saRNA intramuscularly
Procedure: (§1) Female SWISS mice (6 weeks old) were purchased from Janvier Laboratories (Paris, France) and kept in individually ventilated cages with access to food and water ad libitum. Mice were anesthetized with isoflurane (Zoetis, Louvain-La-Neuve, Belgium) (5% for induction and 2% for maintenance) and intramuscularly injected with a total of 1 μg in 100 μL Tris-HCL (50 μL per leg) LNP-formulated luciferase saRNA (for each group n=7). The expression of the luciferase induced bioluminescence was measured via non-invasive In vivo bioluminescent imaging (In vivo Imaging System (IVIS) Lumina III, Perkin Elmer, Waltham, Massachusetts, USA), 10 minutes after subcutaneous injection of 200 μL of D-luciferin (GoldBio, Saint Louis, Missouri, USA, #LUCK-1G) were measured in day 0 (before injection), day 1, day 3, day 5, day 7, day 10, day 15 and day 20. Table 4 and 5 report on the in vivo study using exemplary compounds 10-21, 10-44 and 10-45 and comparator lipids C12-200 and C1. […] Table 5 supports good tolerability of the compounds according to formula I.

[3] = saRNA encapsulation, Quant-IT RiboGreen assay; assay type: physicochemical; details: LNP with saRNA; RiboGreen with or without 2% Triton X-100
Procedure: The saRNA loading in LNP formulations was quantified using a Quant-IT RiboGreen assay (Thermo Fisher Scientific, Waltham, Massachusetts, USA) as previously described. 14 samples were diluted tenfold in 1× Tris HCL—EDTA (TE) buffer (10 mM Tris-HCL, 1 mM EDTA, pH 7.5) with or without 2% (v/v) Triton X-100 (Sigma-Aldrich, Saint Louis, Missouri, USA). Standard solutions were also prepared in 1×TE with or without 2% (v/v) Triton X-100 to account for any variation in fluorescence. The assay was performed according to the manufacturer's protocol. Samples were loaded on a black 96-well plate and analysed for fluorescence on a microplate reader (Tecan Infinite@200 PRO) at an excitation of 485 nm and emission at 528 nm. Encapsulation efficiency was calculated between 80-100%.

luciferase saRNA = assay: In vivo bioluminescent imaging after intramuscular injection of LNP-formulated luciferase saRNA; details: female SWISS mice, 1 μg luciferase saRNA intramuscularly
Procedure: as §1

Compound: CCCCCCCCCCC(O)CN(CCN1CCN(CCN(CC(O)CCCCCCCCCC)CC(O)CCCCCCCCCC)CC1)CCN(CC(O)CCCCCCCCCC)CC(O)CCCCCCCCCC (stereo not shown) [Compound C12-200, 1,1′-((2-(4-(2-((2-(bis(2-hydroxydodecyl)amino)ethyl) (2-hydroxydodecyl)amino)ethyl)piperazin-1-yl)ethyl)azanediyl) bis(dodecan-2-ol), reference compound]
- Polydispersity Index (PI) [1]: 0.27
- Z-average (nm) [1]: 98.11 nm
- Zetapotential (mV) [1]: −5.50 mV
- Weight ([2]; Day 0 (before injection)): 28.61 g
- Weight ([2]; Day 1): 27.17 g
- Weight ([2]; Day 3): 28.62 g
- Weight ([2]; Day 5): 28.98 g
- Weight ([2]; Day 7): 28.97 g
- Weight ([2]; Day 10): 29.23 g
- Weight ([2]; Day 15): 30.16 g
- Weight ([2]; Day 20): 31.23 g
- Encapsulation (%) [3]: 95.32%
- Bioluminescence expression of LNPs (luciferase saRNA; Day 0 (before injection)): 2.39E+04
- Bioluminescence expression of LNPs (luciferase saRNA; Day 1): 3.36E+08
- Bioluminescence expression of LNPs (luciferase saRNA; Day 3): 6.19E+08
- Bioluminescence expression of LNPs (luciferase saRNA; Day 5): 4.79E+08
- Bioluminescence expression of LNPs (luciferase saRNA; Day 7): 2.47E+08
- Bioluminescence expression of LNPs (luciferase saRNA; Day 10): 2.20E+07
- Bioluminescence expression of LNPs (luciferase saRNA; Day 15): 4.80E+05
- Bioluminescence expression of LNPs (luciferase saRNA; Day 20): 9.12E+04

Compound: CCCCCCCCCCCCCCOC(=O)CCN(CCC(=O)OCCCCCCCCCCCCCC)CCN1CCN(CCN(CCC(=O)OCCCCCCCCCCCCCC)CCC(=O)OCCCCCCCCCCCCCC)CC1 [Comparator 1 (C1), reference compound]
- Polydispersity Index (PI) [1]: 0.16
- Z-average (nm) [1]: 70.96 nm
- Zetapotential (mV) [1]: 9.07 mV
- Weight ([2]; Day 0 (before injection)): 26.56 g
- Weight ([2]; Day 1): 25.99 g
- Weight ([2]; Day 3): 27.21 g
- Weight ([2]; Day 5): 27.59 g
- Weight ([2]; Day 7): 27.09 g
- Weight ([2]; Day 10): 27.17 g
- Weight ([2]; Day 15): 29.43 g
- Weight ([2]; Day 20): 30.11 g
- Encapsulation (%) [3]: 99.03%
- Bioluminescence expression of LNPs (luciferase saRNA; Day 0 (before injection)): 3.32E+04
- Bioluminescence expression of LNPs (luciferase saRNA; Day 1): 2.76E+07
- Bioluminescence expression of LNPs (luciferase saRNA; Day 3): 1.28E+08
- Bioluminescence expression of LNPs (luciferase saRNA; Day 5): 7.19E+07
- Bioluminescence expression of LNPs (luciferase saRNA; Day 7): 8.88E+07
- Bioluminescence expression of LNPs (luciferase saRNA; Day 10): 5.07E+06
- Bioluminescence expression of LNPs (luciferase saRNA; Day 15): 8.46E+04
- Bioluminescence expression of LNPs (luciferase saRNA; Day 20): 4.32E+04

Compound: CCCCCCC(CCCC)C(=O)OCCCCN(CCCCOC(=O)C(CCCC)CCCCCC)CCN1CCN(CCNCCN)CC1 (stereo not shown) [Compound 10-45, ((2-(4-(2-((2-aminoethyl)amino)ethyl)piperazin-1-yl)ethyl)azanediyl)bis(butane-4,1-diyl) bis(2-butyloctanoate)]
- Polydispersity Index (PI) [1]: 0.1
- Z-average (nm) [1]: 81.42 nm
- Zetapotential (mV) [1]: 2.78 mV
- Weight ([2]; Day 0 (before injection)): 26.93 g
- Weight ([2]; Day 1): 25.79 g
- Weight ([2]; Day 3): 26.43 g
- Weight ([2]; Day 5): 27.10 g
- Weight ([2]; Day 7): 27.27 g
- Weight ([2]; Day 10): 27.69 g
- Weight ([2]; Day 15): 28.19 g
- Weight ([2]; Day 20): 30.21 g
- Encapsulation (%) [3]: 100.49%
- Bioluminescence expression of LNPs (luciferase saRNA; Day 0 (before injection)): 6.00E+04
- Bioluminescence expression of LNPs (luciferase saRNA; Day 1): 1.09E+07
- Bioluminescence expression of LNPs (luciferase saRNA; Day 3): 1.90E+07
- Bioluminescence expression of LNPs (luciferase saRNA; Day 5): 1.72E+07
- Bioluminescence expression of LNPs (luciferase saRNA; Day 7): 1.68E+07
- Bioluminescence expression of LNPs (luciferase saRNA; Day 10): 7.02E+05
- Bioluminescence expression of LNPs (luciferase saRNA; Day 15): 7.94E+04
- Bioluminescence expression of LNPs (luciferase saRNA; Day 20): 8.63E+04

Compound: CCCCCCC(CCCC)C(=O)OCCCCN(CCCCOC(=O)C(CCCC)CCCCCC)CCN1CCN(CCO)CC1 (stereo not shown) [Compound 10-21, ((2-(4-(2-hydroxyethyl)piperazin-1-yl)ethyl)azanediyl)bis(butane-4,1-diyl) bis(2-butyloctanoate)]
- Polydispersity Index (PI) [1]: 0.16
- Z-average (nm) [1]: 72.27 nm
- Zetapotential (mV) [1]: 7.05 mV
- Weight ([2]; Day 0 (before injection)): 27.96 g
- Weight ([2]; Day 1): 28.19 g
- Weight ([2]; Day 3): 28.26 g
- Weight ([2]; Day 5): 27.90 g
- Weight ([2]; Day 7): 28.01 g
- Weight ([2]; Day 10): 27.57 g
- Weight ([2]; Day 15): 28.63 g
- Weight ([2]; Day 20): 30.83 g
- Encapsulation (%) [3]: 99.41%
- Bioluminescence expression of LNPs (luciferase saRNA; Day 0 (before injection)): 3.89E+04
- Bioluminescence expression of LNPs (luciferase saRNA; Day 1): 3.23E+06
- Bioluminescence expression of LNPs (luciferase saRNA; Day 3): 5.03E+07
- Bioluminescence expression of LNPs (luciferase saRNA; Day 5): 8.74E+07
- Bioluminescence expression of LNPs (luciferase saRNA; Day 7): 5.77E+07
- Bioluminescence expression of LNPs (luciferase saRNA; Day 10): 7.72E+06
- Bioluminescence expression of LNPs (luciferase saRNA; Day 15): 2.44E+05
- Bioluminescence expression of LNPs (luciferase saRNA; Day 20): 1.62E+05

Compound: CCCCCCC(CCCC)C(=O)OCCCCN(CCCCOC(=O)C(CCCC)CCCCCC)CCN1CCN(CCN)CC1 (stereo not shown) [Compound 10-44, ((2-(4-(2-aminoethyl)piperazin-1-yl)ethyl)azanediyl)bis(butane-4,1-diyl) bis(2-butyloctanoate)]
- Polydispersity Index (PI) [1]: 0.15
- Z-average (nm) [1]: 67.46 nm
- Zetapotential (mV) [1]: 1.25 mV
- Weight ([2]; Day 0 (before injection)): 26.84 g
- Weight ([2]; Day 1): 26.46 g
- Weight ([2]; Day 3): 27.00 g
- Weight ([2]; Day 5): 28.13 g
- Weight ([2]; Day 7): 27.94 g
- Weight ([2]; Day 10): 28.11 g
- Weight ([2]; Day 15): 29.31 g
- Weight ([2]; Day 20): 30.04 g
- Encapsulation (%) [3]: 100.06%
- Bioluminescence expression of LNPs (luciferase saRNA; Day 0 (before injection)): 2.87E+04
- Bioluminescence expression of LNPs (luciferase saRNA; Day 1): 1.61E+07
- Bioluminescence expression of LNPs (luciferase saRNA; Day 3): 3.62E+07
- Bioluminescence expression of LNPs (luciferase saRNA; Day 5): 4.98E+07
- Bioluminescence expression of LNPs (luciferase saRNA; Day 7): 4.24E+07
- Bioluminescence expression of LNPs (luciferase saRNA; Day 10): 1.09E+06
- Bioluminescence expression of LNPs (luciferase saRNA; Day 15): 5.87E+04
- Bioluminescence expression of LNPs (luciferase saRNA; Day 20): 6.12E+04
